Results from patent US11753407B2, “Compounds for treating spinal muscular atrophy” (PTC Therapeutics, Inc., priority 2012, dated 2023).

Columns and labels:
[1] = tested on: Smn protein in SMA patient fibroblast cells (GM03813); experiment: Smn protein assay in cultured cells (SMN HTRF); assay type: cell-based, human; details: SMA patient fibroblast cells, 48 hours; for EC1.5x for Smn protein expression: 7-point concentration curve, SMN HTRF, concentration producing 1.5 times Smn protein vs DMSO vehicle control; for maximum fold (Fold) increase of Smn protein: 7-point concentration data, fold relative to vehicle control
Summary of the method: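 Smn protein quantified by HTRF with anti-SMN d2/kryptate pair, 665/620 nm ratio blank-corrected, in RIPA lysates of GM03813 fibroblasts after 48 h compound exposure (7 concentrations, 3.16-fold steps, triplicates). Values: concentration producing 1.5× vehicle Smn level, and maximal fold increase.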

[2] = tested on: SMN2 minigene mRNA (SMN2-A minigene) in HEK293H cells; experiment: SMN2 minigene mRNA splicing RT-qPCR assay in cultured cells; assay type: cell-based, human; details: Homo sapiens, HEK293-H; concentration increasing full length SMN2 mRNA 1.5-fold relative to vehicle-treated cells; HEK293H cells with SMN2-A minigene, 24 hours, 7-point concentration data; read-out: EC1.5x for production of full length SMN2 mRNA
Summary of the method: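 EC1.5× = concentration raising full-length SMN2 minigene mRNA 1.5-fold over vehicle, from 7-point curves in duplicate. Stably transfected HEK293H cells exposed 24 h at 37 °C; lysates assayed by multiplex RT-qPCR, minigene FL signal normalized to GAPDH via modified ΔΔCt.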

Cc1cn2nc(-c3cc(=O)n4cc(N5CCN6CCC[C@@H]6C5)cc(C)c4n3)cc2c(C)n1 [Compound 458, 2-(4,6-dimethylpyrazolo[1,5-a]pyrazin-2-yl)-7-[(8aR)-hexahydropyrrolo[1,2-a]pyrazin-2(1H)-yl]-9-methyl-4H-pyrido[1,2-a]pyrimidin-4-one]
EC1.5x for Smn protein expression [1]: *** (an EC1.5× between >0.3 μM and ≤1 μM is indicated by three stars (***)) | maximum fold (Fold) increase of Smn protein [1]: **** (a fold increase between >1.5 and ≤1.65 is indicated by four stars (****)) | melting point: 244 to 256 °C | EC (1.5-fold increase) [2]: < 0.1 µM

Cc1cn2nc(-c3cc(=O)n4cc(N5CCC(N(C)C)CC5)cc(C)c4n3)cc2c(C)n1 [Compound 459, 7-[4-(dimethylamino)piperidin-1-yl]-2-(4,6-dimethylpyrazolo[1,5-a]pyrazin-2-yl)-9-methyl-4H-pyrido[1,2-a]pyrimidin-4-one]
maximum fold (Fold) increase of Smn protein [1]: *** (a fold increase between >1.35 and ≤1.5 is indicated by three stars (***)) | melting point: 231 to 241 °C | EC (1.5-fold increase) [2]: < 0.1 µM

Cc1cn2cc(-c3ccc4nc(C5CCN(C)CC5)cc(=O)n4c3)ccc2n1 [Compound 460, 7-(2-methylimidazo[1,2-a]pyridin-6-yl)-2-(1-methylpiperidin-4-yl)-4H-pyrido[1,2-a]pyrimidin-4-one]
EC1.5x for Smn protein expression [1]: *** (an EC1.5× between >0.3 μM and ≤1 μM is indicated by three stars (***)) | maximum fold (Fold) increase of Smn protein [1]: **** (a fold increase between >1.5 and ≤1.65 is indicated by four stars (****)) | melting point: 227 to 230 °C | EC (1.5-fold increase) [2]: 0.1 to 0.3 µM

Cc1cn2cc(-c3ccc4nc(C5CCN(C(C)C)CC5)cc(=O)n4c3)ccc2n1 [Compound 461, 7-(2-methylimidazo[1,2-a]pyridin-6-yl)-2-[1-(propan-2-yl)piperidin-4-yl]-4H-pyrido[1,2-a]pyrimidin-4-one]
EC1.5x for Smn protein expression [1]: ** (an EC1.5× between >1 μM and ≤3 μM is indicated by two stars (**)) | maximum fold (Fold) increase of Smn protein [1]: **** (a fold increase between >1.5 and ≤1.65 is indicated by four stars (****)) | melting point: 215 to 218 °C | EC (1.5-fold increase) [2]: 0.3 to 1 µM

Cc1cn2cc(-c3ccc4nc(C5CCN(C)CC5)cc(=O)n4c3)cc(F)c2n1 [Compound 462, 7-(8-fluoro-2-methylimidazo[1,2-a]pyridin-6-yl)-2-(1-methylpiperidin-4-yl)-4H-pyrido[1,2-a]pyrimidin-4-one]
EC1.5x for Smn protein expression [1]: **** (an EC1.5x≤0.3 μM is indicated by four stars (****)) | maximum fold (Fold) increase of Smn protein [1]: ***** (a fold increase >1.65 is indicated by five stars (*****)) | melting point: 235 to 238 °C | EC (1.5-fold increase) [2]: < 0.1 µM

CCN1CC=C(c2ccc3nc(-c4ccc5c(cnn5C)c4)cc(=O)n3c2)CC1 [Compound 463, 7-(1-ethyl-1,2,3,6-tetrahydropyridin-4-yl)-2-(1-methyl-1H-indazol-5-yl)-4H-pyrido[1,2-a]pyrimidin-4-one]
EC1.5x for Smn protein expression [1]: *** (an EC1.5× between >0.3 μM and ≤1 μM is indicated by three stars (***)) | maximum fold (Fold) increase of Smn protein [1]: ***** (a fold increase >1.65 is indicated by five stars (*****)) | melting point: 172 to 174 °C | EC (1.5-fold increase) [2]: < 0.1 µM

CCCN1CC=C(c2ccc3nc(-c4ccc5c(cnn5C)c4)cc(=O)n3c2)CC1 [Compound 464, 2-(1-methyl-1H-indazol-5-yl)-7-(1-propyl-1,2,3,6-tetrahydropyridin-4-yl)-4H-pyrido[1,2-a]pyrimidin-4-one]
EC1.5x for Smn protein expression [1]: ** (an EC1.5× between >1 μM and ≤3 μM is indicated by two stars (**)) | maximum fold (Fold) increase of Smn protein [1]: **** (a fold increase between >1.5 and ≤1.65 is indicated by four stars (****)) | melting point: 152 to 154 °C | EC (1.5-fold increase) [2]: 0.1 to 0.3 µM

CN(C)c1ccc(-c2cc(=O)n3cc(C4CCNCC4)ccc3n2)cn1 [Compound 465, 2-[6-(dimethylamino)pyridin-3-yl]-7-(piperidin-4-yl)-4H-pyrido[1,2-a]pyrimidin-4-one]
maximum fold (Fold) increase of Smn protein [1]: *** (a fold increase between >1.35 and ≤1.5 is indicated by three stars (***)) | melting point: 208 to 210 °C | EC (1.5-fold increase) [2]: 0.3 to 1 µM
